# Data taken from patent publication US20060264372A1, “Process for the synchronization of ovulation for timed breeding without heat detection” (priority 2003, published 2006).
# What was measured:
# mature postpartum sows = experiment: Intravulvar deslorelin at estrus detection in mature postpartum sows, AI breeding (Example 2); assay type: in vivo, swine; details: per litter; 50 μg intravulvar at first estrus detection
# Experimental: Sows were assigned randomly in blocks of two to either control or to be injected intravulvar with 50 mcg of deslorelin in SAIB at the time of estrus detection for sows first detected in estrus in the a.m. and 12 hours later for those first detected in estrus in the p.m. Treated animals were bred AI upon detected estrus and again 24 hours later if still in estrus. Controls received a saline injection on first detected estrus behavior estrus detection and were bred according to the farm's normal procedures. Saline sows bred at detected estrus consistent with farm sows. Deslorelin sows injected intravulvar with 1 ml (50 μg deslorelin acetate) at first estrus detection and AI, then AI again if in estrus the next day. Live piglet number 0.6> in Deslorelin versus Saline sows.
# postpartum sows = experiment: Timed deslorelin injection 96 hours post-weaning and single timed insemination without estrus detection (Example 3); assay type: in vivo, swine; details: 50 mcg in SAIB 96 hours post-weaning
# Experimental: Approximately 170 postpartum sows were randomly divided into two equal groups comprised of controls and treated. Following weaning, the controls were detected for estrus and bred following the normal standard operating procedures for the farms on which they resided. The treated sows received a 50 mcg dose of deslorelin in SAIB at 96 hours post-weaning and were bred with a single insemination 28±2 hours later with no regard to estrus detection. The sows were examined for pregnancy by ultrasound at 21 days and slaughtered around 28 days post breeding. The entire reproductive tract was removed and corpora lutea and embryos were counted.
smiles,measurement,setting,value
"CCNC(=O)[C@@H]1CCCN1C(=O)[C@H](CCCN=C(N)N)NC(=O)[C@H](CC(C)C)NC(=O)[C@@H](Cc1c[nH]c2ccccc12)NC(=O)[C@H](Cc1ccc(O)cc1)NC(=O)[C@H](CO)NC(=O)[C@H](Cc1c[nH]c2ccccc12)NC(=O)[C@H](Cc1cnc[nH]1)NC(=O)[C@@H]1CCC(=O)N1 [Deslorelin, deslorelin]","Live piglet number, greater versus Saline sows",mature postpartum sows,0.6
same,Embryo Survival,postpartum sows,64%
same,Sows Pregnant,"postpartum sows; single insemination 28±2 hours later, 84 in group",60
